Test results reported in patent US20050107376A1, “Fungicidal mixtures based on prothioconazole” (priority 2002, published 2005).

Experiments:
[1] = system: Erysiphe [syn. Blumeria] graminis forma specialis. tritici; assay: Activity against mildew of wheat (protective spray, wheat seedlings cultivar Kanzler); format: in vivo; conditions: 7 days, control 77% infestation
Experimental: (§1) The active compounds, separately or together, were formulated as a 10% emulsion in a mixture of 63% by weight of cyclohexanone and 27% by weight of emulsifier, and diluted with water to the desired concentration.
(§2) Evaluation was carried out by determining the infected leaf areas in percent. These percentages were converted into efficacies. The efficacy (W) was calculated as follows using Abbot's formula: [formula] • α corresponds to the fungal infection of the treated plants in % and • β corresponds to the fungal infection of the untreated (control) plants in %
(§3) An efficacy of 0 means that the infection level of the treated plants corresponds to that of the untreated control plants; an efficacy of 100 means that the treated plants were not infected.
(§4) The expected efficacies of the mixtures of the active compounds were determined using Colby's formula [R. S. Colby, Weeds 15, 20-22 (1967)] and compared with the observed efficacies. Colby's formula: E x+y−x•y/100 • E expected efficacy, expressed in % of the untreated control, when using the mixture of the active compounds A and B at the concentrations a and b • x efficacy, expressed in % of the untreated control, when using active compound A at a concentration of a • y efficacy, expressed in % of the untreated control, when using active compound B at a concentration of b.
Leaves of wheat seedlings of the cultivar “Kanzler”, which had been grown in pots, were sprayed to runoff point with an aqueous suspension having the concentration of active compound stated below. The suspension or emulsion was prepared from a stock solution with 10% of active compound in a mixture comprising 85% of cyclohexanone and 5% of emulsifier. 24 hours after the spraycoating had dried on, the plants were dusted with spores of mildew of wheat (Erysiphe [syn. Blumeria] graminis forma specialis. tritici). The test plants were then placed in a greenhouse at 20-24° C. and 60-90% relative atmospheric humidity. After 7 days, the extent of the mildew development was determined visually in % infection of the total leaf area.
The visually determined values for the percentage of diseased leaf areas were converted into efficacies in % of the untreated control. An efficacy of 0 means the same disease level as in the untreated control, an efficacy of 100 means 0% disease. The expected efficacies for combinations of active compounds were determined using the abovementioned Colby formula and compared with the observed efficacies.

Puccinia recondita = assay: Curative activity against brown rust of wheat (wheat seedlings cultivar Kanzler); format: in vivo; conditions: 7 days, control 90% infestation
Experimental: as §1, §2, §3, §4
Leaves of wheat seedlings of the cultivar “Kanzler”, which had been grown in pots, were dusted with spores of brown rust (Puccinia recondita). The pots were then placed in a chamber with high atmospheric humidity (90-95%), at 20-22° C. During this time, the spores germinated and the germinal tubes penetrated into the leaf tissue. The next day, the infected plants were sprayed to runoff point with an aqueous suspension having the concentration of active compound stated below. The suspension or emulsion was prepared from a stock solution with 10% of active compound in a mixture comprising 85% of cyclohexanone and 5% of emulsifier. After the spray coating had dried on, the test plants were cultivated in a greenhouse at 20-22° C. in 65-70% relative atmospheric humidity for 7 days. The extent of the rust fungus development on the leaves was then determined.
The visually determined values for the percentage of diseased leaf areas were converted into efficacies in % of the untreated control. An efficacy of 0 means the same disease level as in the untreated control, an efficacy of 100 means 0% disease. The expected efficacies for active compound combinations were determined using the abovementioned Colby formula and compared with the observed efficacies.

SMILES | Efficacy in % of the untreated control ([1]; 0.25 ppm in the spray liquor) [%] | Efficacy in % of the untreated control ([1]; 1 ppm in the spray liquor) [%] | Efficacy in % of the untreated control (Puccinia recondita; 0.25 ppm in the spray liquor) [%] | Efficacy in % of the untreated control (Puccinia recondita; 1 ppm in the spray liquor) [%] | Efficacy in % of the untreated control ([1]; 0.15 ppm in the spray liquor) [%] | Efficacy in % of the untreated control ([1]; 0.6 ppm in the spray liquor) [%] | Efficacy in % of the untreated control ([1]; 2.5 ppm in the spray liquor) [%] | Efficacy in % of the untreated control (Puccinia recondita; 0.15 ppm in the spray liquor) [%] | Efficacy in % of the untreated control (Puccinia recondita; 0.6 ppm in the spray liquor) [%] | Efficacy in % of the untreated control (Puccinia recondita; 2.5 ppm in the spray liquor) [%]
OC(Cc1ccccc1Cl)(Cn1nc[nH]c1=S)C1(Cl)CC1 (stereo not drawn) [Compound I, 2-[2-(1-chlorocyclopropyl)-3-(2-chlorophenyl)-2-hydroxy-propyl]-2,4-dihydro-[1,2,4]-triazole-3-thione] | 0 | 0 | 22 | 78 | – | – | – | – | – | –
CC(Cc1ccc(C(C)(C)C)cc1)CN1C[C@@H](C)O[C@@H](C)C1 (stereo partly drawn) [Compound II, fenpropimorph] | – | – | – | – | 0 | 0 | 74 | 0 | 0 | 22
CCCCCCCCCCCCCN1CC(C)OC(C)C1 (stereo not drawn) [Compound III, tridemorph] | – | – | – | – | 0 | 0 | 48 | 0 | 0 | 0
CC(Cc1ccc(C(C)(C)C)cc1)CN1CCCCC1 (stereo not drawn) [Compound IV, fenpropidin] | – | – | – | – | 0 | 61 | – | 0 | 0 | 44
